Patent US9221783B2, “Phenylalkyl sulfamate compound and muscle relaxant composition comprising the same” (BIO-PHARM SOLUTIONS CO., LTD., priority 2012, dated 2015)

System: male mice (ICR)
Experiment: Muscle relaxation activity by grip strength test (forelimbs)
Assay type: in vivo
Details: intraperitoneal; for Grip strength, percentage compared to the vehicle only (100%): dose 200 (unit not given)
Protocol: For testing, male mice (ICR) were purchased from ORIENT BIO INC. (Korea), divided into several groups with 6 mice in each group, and were adapted for 4-5 days. The mice having the weight ranging from 19 g to 26 g were employed for the test. The pharmacological effect of the test compounds on muscle relaxation was evaluated by Rotarod test, grip strength test, and muscular force (wire hang) test. All mice were adapted to the test environment at one hour before starting the tests. The pharmacological effects of all the test compounds were evaluated by administration through peritoneal cavity of the mice (10 ul/g, bw).
The test was conducted before and after administration of the compounds to evaluate the effects thereof. […] The mouse was made to grip the rod with its forelimbs, and its tail was pulled, where the force at which the mouse detached from the rod was recorded. The instrument indicated the force in grams. All of the mice were given 3 opportunities for test, and the 3 highest values among the test opportunities were selected and the mean value was used as the test result. […] Psychopharmacol. 110: 92-96’.
The obtained results are shown as mean±sem. The difference between the groups was statistically analyzed by ANOVA, and then, further examined by Dunnett's test or Bonferroni test. If p is less than 0.05, it was determined that the difference between the groups had statistical significance.

SMILES | Grip strength, percentage compared to the vehicle only (100%) | ED50 (Mus musculus, ip, ED50 = 50% of muscle relaxation activity compared to vehicle only (100%), determined at 0.5 h (time of maximum effect)) [mg/kg]
NS(=O)(=O)OCC[C@H]1OC2(CCCCC2)O[C@@H]1Cc1ccccc1Cl [Example 144, 2-((2R,3R)-3-(2-chlorobenzyl)-1,4-dioxaspiro[4,5]decan-2-yl)ethyl sulfamate] | 200 (62.0%) | 
NS(=O)(=O)OCC[C@H]1OC2(CCCCC2)O[C@@H]1Cc1ccccc1 [Example 120, 2-((2R,3R)-3-benzyl-1,4-dioxaspiro[4,5]decan-2-yl)ethyl sulfamate] | 200 (80.5%) | 
CC1(C)O[C@H](CCOS(N)(=O)=O)[C@@H](Cc2ccccc2)O1 [Example 114, 2-((4R,5R)-5-benzyl-2,2-dimethyl-1,3-dioxolan-4-yl)ethyl sulfamate] | 200 (75.4%) | 
CC1(C)O[C@H](c2ccccc2I)[C@@H](COS(N)(=O)=O)O1 [Example 27, ((4R,5R)-5-(2-iodophenyl)-2,2-dimethyl-1,3-dioxolan-4-yl)methyl sulfamate] |  | 378
CNc1ccccc1[C@@H]1OC(C)(C)O[C@H]1COS(=O)(=O)NC [Example 104, ((4S,5S)-5-(2-methylaminophenyl)-2,2-dimethyl-1,3-dioxolan-4-yl)methyl methylsulfamate] | 200 (71.3%) | 
CC1(C)O[C@H](COS(N)(=O)=O)[C@@H](Cc2ccccc2Cl)O1 [Example 146, ((4R,5R)-5-(2-chlorobenzyl)-2,2-dimethyl-1,3-dioxolan-4-yl)methyl sulfamate] | 200 (79.2%) | 
NS(=O)(=O)OCC[C@@H]1OC2(CCCCC2)O[C@H]1c1ccccc1Cl [Example 160, 2-((2S,3S)-3-(2-chlorophenyl)-1,4-dioxaspiro[4,5]decan-2-yl)ethyl sulfamate] | 200 (86.8%) | 
CCC1(CC)O[C@H](COS(N)(=O)=O)[C@@H](Cc2ccccc2Cl)O1 [Example 148, ((4R,5R)-5-(2-chlorobenzyl)-2,2-diethyl-1,3-dioxolan-4-yl)methyl sulfamate] | 200 (70.2%) | 
CCC1(CC)O[C@@H](CCOS(N)(=O)=O)[C@H](c2ccccc2)O1 [Example 132, 2-((4S,5S)-5-phenyl-2,2-diethyl-1,3-dioxolan-4-yl)ethyl sulfamate] | 200 (25.7%) | 
CC1(C)O[C@H](CCOS(N)(=O)=O)[C@@H](Cc2ccccc2Cl)O1 [Example 138, 2-((4R,5R)-5-(2-chlorobenzyl)-2,2-dimethyl-1,3-dioxolan-4-yl)ethyl sulfamate] | 200 (70.1%) | 
NS(=O)(=O)OCC[C@H]1OC2(CCCC2)O[C@@H]1Cc1ccccc1 [Example 118, 2-((2R,3R)-3-benzyl-1,4-dioxaspiro[4,4]nonan-2-yl)ethyl sulfamate] | 200 (83.7%) | 
Nc1ccccc1[C@@H]1OC2(CCCCC2)O[C@H]1COS(N)(=O)=O [Example 74, ((2S,3S)-3-(2-aminophenyl)-1,4-dioxaspiro[4,5]decan-2-yl)methyl sulfamate] | 200 (88.1%) | 
NS(=O)(=O)OCC[C@@H]1OC2(CCCC2)O[C@H]1c1ccccc1 [Example 134, 2-((2S,3S)-3-phenyl-1,4-dioxaspiro[4,4]nonan-2-yl)ethyl sulfamate] | 200 (90.1%) | 
NS(=O)(=O)OC[C@H]1OC2(CCCCC2)O[C@@H]1Cc1ccccc1Cl [Example 152, ((2R,3R)-3-(2-chlorobenzyl)-1,4-dioxaspiro[4,5]decan-2-yl)methyl sulfamate] | 200 (77.2%) | 
NS(=O)(=O)OC[C@H]1OC2(CCCCC2)O[C@@H]1Cc1ccccc1 [Example 128, ((2R,3R)-3-benzyl-1,4-dioxaspiro[4,5]decan-2-yl)methyl sulfamate] | 200 (81.4%) | 
NS(=O)(=O)OCC[C@@H]1OC2(CCCCC2)O[C@H]1c1ccccc1 [Example 136, 2-((2S,3S)-3-phenyl-1,4-dioxaspiro[4,5]decan-2-yl)ethyl sulfamate] | 200 (80.8%) | 
NS(=O)(=O)OCC[C@@H]1OC2(CCCC2)O[C@H]1c1ccccc1Cl [Example 158, 2-((2S,3S)-3-(2-chlorophenyl)-1,4-dioxaspiro[4,4]nonan-2-yl)ethyl sulfamate] | 200 (74.2%) | 
NS(=O)(=O)OC[C@@H]1OC2(CCCC2)O[C@H]1c1ccccc1Cl [Example 10, ((2S,3S)-3-(2-chlorophenyl)-1,4-dioxaspiro[4,4]nonan-2-yl)methyl sulfamate] | 200 (91.2%) | 

SMILES | Grip strength, percentage compared to the vehicle only (100%) | ED50 (Mus musculus, ip, ED50 = 50% of muscle relaxation activity compared to vehicle only (100%), determined at 0.5 h (time of maximum effect)) [mg/kg]
NS(=O)(=O)OC[C@@H]1OC(=O)O[C@H]1c1ccccc1[N+](=O)[O-] [Example 90, ((4S,5S)-5-(2-nitrophenyl)-2-oxo-1,3-dioxolan-4-yl)methyl sulfamate] | 200 (43.8%) | 
NS(=O)(=O)OC[C@H]1OC2(CCCC2)O[C@@H]1Cc1ccccc1Cl [Example 150, ((2R,3R)-3-(2-chlorobenzyl)-1,4-dioxaspiro[4,4]nonan-2-yl)methyl sulfamate] | 200 (89.8%) | 
NS(=O)(=O)OC[C@@H]1OC2(CCCC2)O[C@H]1c1ccccc1 [Example 110, ((2S,3S)-3-phenyl-1,4-dioxaspiro[4,4]nonan-2-yl)methyl sulfamate] | 200 (62.9%) | 
CCC1(CC)O[C@@H](CCOS(N)(=O)=O)[C@H](c2ccccc2Cl)O1 [Example 156, 2-((4S,5S)-5-(2-chlorophenyl)-2,2-diethyl-1,3-dioxolan-4-yl)ethyl sulfamate] | 200 (73.2%) | 
CCC1(CC)O[C@H](COS(N)(=O)=O)[C@@H](Cc2ccccc2)O1 [Example 124, ((4R,5R)-5-benzyl-2,2-diethyl-1,3-dioxolan-4-yl)methyl sulfamate] | 200 (81.0%) | 
CC1(C)O[C@@H](CCOS(N)(=O)=O)[C@H](c2ccccc2Cl)O1 [Example 154, ((4S,5S)-5-(2-chlorophenyl)-2,2-dimethyl-1,3-dioxolan-4-yl)ethyl sulfamate] | 200 (70.4%) | 
CC1(C)O[C@@H](CCOS(N)(=O)=O)[C@H](c2ccccc2)O1 [Example 130, 2-((4S,5S)-5-phenyl-2,2-dimethyl-1,3-dioxolan-4-yl)ethyl sulfamate] | 200 (91.4%) | 
NS(=O)(=O)OC[C@H]1OC2(CCCC2)O[C@@H]1Cc1ccccc1 [Example 126, ((2R,3R)-3-benzyl-1,4-dioxaspiro[4,4]nonan-2-yl)methyl sulfamate] | 200 (76.7%) | 
CC1(C)O[C@@H](COS(N)(=O)=O)[C@H](c2c(Cl)cccc2Cl)O1 [Example 52, ((4S,5S)-5-(2,6-dichlorophenyl)-2,2-dimethyl-1,3-dioxolan-4-yl)methyl sulfamate] | 200 (28.2%) | 
CCC1(CC)O[C@H](CCOS(N)(=O)=O)[C@@H](Cc2ccccc2Cl)O1 [Example 140, 2-((4R,5R)-5-(2-chlorobenzyl)-2,2-diethyl-1,3-dioxolan-4-yl)ethyl sulfamate] | 200 (73.4%) | 
Nc1ccccc1[C@@H]1OC(c2ccccc2)O[C@H]1COS(N)(=O)=O (stereo partly drawn) [Example 76, ((4S,5S)-5-(2-aminophenyl)-2-phenyl-1,3-dioxolan-4-yl)methyl sulfamate] | 200 (78.5%) | 
CC1(C)O[C@@H](COS(N)(=O)=O)[C@H](c2ccccc2)O1 [Example 106, ((4S,5S)-5-phenyl-2,2-dimethyl-1,3-dioxolan-4-yl)methyl sulfamate] | 200 (62.8%) | 
CCC1(CC)O[C@H](CCOS(N)(=O)=O)[C@@H](Cc2ccccc2)O1 [Example 116, 2-((4R,5R)-5-benzyl-2,2-diethyl-1,3-dioxolan-4-yl)ethyl sulfamate] | 200 (81.6%) | 
Nc1ccccc1[C@@H]1OC2(CCCC2)O[C@H]1COS(N)(=O)=O [Example 72, ((2S,3S)-3-(2-aminophenyl)-1,4-dioxaspiro[4,4]nonan-2-yl)methyl sulfamate] | 200 (87.0%) | 
NS(=O)(=O)OC[C@@H]1OC2(CCCCC2)O[C@H]1c1ccccc1Cl [Example 12, ((2S,3S)-3-(2-chlorophenyl)-1,4-dioxaspiro[4,5]decan-2-yl)methyl sulfamate] | 200 (57.7%) | 
Cc1ccccc1[C@@H]1OC(C)(C)O[C@H]1COS(N)(=O)=O [Example 92, ((4S,5S)-5-(2-methylphenyl)-2,2-dimethyl-1,3-dioxolan-4-yl)methyl sulfamate] | 200 (46.2%) | 
NS(=O)(=O)OC[C@@H]1OC2(CCCCC2)O[C@H]1c1ccccc1 [Example 112, ((2S,3S)-3-phenyl-1,4-dioxaspiro[4,5]decan-2-yl)methyl sulfamate] | 200 (33.2%) | 
NS(=O)(=O)OCC[C@H]1OC2(CCCC2)O[C@@H]1Cc1ccccc1Cl [Example 142, 2-((2R,3R)-3-(2-chlorobenzyl)-1,4-dioxaspiro[4,4]nonan-2-yl)ethyl sulfamate] | 200 (66.8%) | 
